Holding throughout (type): cell-based
One assay concerns HASM cells. The assay can be described thus: Human airway smooth muscle cell scratch (migration) assay. The following applies: 24 hours post scratch, 20 ng/mL PDGF, relative to PDGF alone. Here is the method: FIGS. 4A-4F: DFPQ inhibits internalization of the β2AR and protects from agonist induced desensitization in cell and tissue models. FIG. 4A: Effect of DFPQ on agonist-promoted internalization of the β2AR. HEK 293 cells stably expressing FLAG-β2AR were pre-incubated with 0.1% DMSO or 10 μM DFPQ for 30 min and then stimulated with the indicated concentrations of ISO for up to 60 min. Cells were fixed and receptor surface expression was measured by ELISA. […] Cells were lysed and cAMP production was measured by ELISA. […] FIG. 4C: Mouse airway tissue were contracted with 1 μM methacholine for 5 min and then incubated overnight with 1 μM ISO±1 μM DFPQ. Airway slices were washed, re-contracted with methacholine, and incubated with ISO for 1 hour (n=4 bronchioles). Airway contractility was measured by luminal area of bronchioles by microscopy at various times. FIG. 4D: Bar graphs represent normalized ISO-promoted relaxation from methacholine contraction on day 2 of treatment at the 25 min timepoint from 4 tracheal rings. *, p<0.05 FIG. 4E: HASM cells were scratched and incubated overnight in PDGF containing serum free media. Cells were imaged to evaluate migration into the scratched area. FIG. 4F: Densitometric analysis of migration into scratched area (n=3 experiments). ***, p<0.001; **, p<0.01
Cell culture GLOSENSOR™ cells (Promega) were maintained in Dulbecco's modified Eagle's medium (DMEM) containing 10% fetal bovine serum (FBS) and 200 μg/ml Hygromycin B. […]® ADRB2 cells (DiscoveRx) were maintained with the AssayComplete™ Cell Culture kit (DiscoveRx catalog #92-3107G). […] Cells were read every three minutes for 18 minutes on a PolarStar Optima plate reader (BMG) to establish peak signal. ISO was added to each well to a final concentration of 1 μM, and luminescence was determined in kinetic mode at room temperature (23-25° C.). Response was analyzed relative to forskolin (7 μM) and alprenolol (1 μM) as positive and negative controls, respectively. […] Luminescence was determined at room temperature (23-25° C.) on a PolarStar Optima plate reader (BMG). […]

For assay [1], the target named is T1, β2AR (Homo sapiens, UniProt P07550). Briefly: […] high throughput assay for β-arrestin recruitment to β2AR. The following applies: PathHunter, ISO-promoted β-arrestin2 recruitment.
T1 sequence (P07550 whole entry): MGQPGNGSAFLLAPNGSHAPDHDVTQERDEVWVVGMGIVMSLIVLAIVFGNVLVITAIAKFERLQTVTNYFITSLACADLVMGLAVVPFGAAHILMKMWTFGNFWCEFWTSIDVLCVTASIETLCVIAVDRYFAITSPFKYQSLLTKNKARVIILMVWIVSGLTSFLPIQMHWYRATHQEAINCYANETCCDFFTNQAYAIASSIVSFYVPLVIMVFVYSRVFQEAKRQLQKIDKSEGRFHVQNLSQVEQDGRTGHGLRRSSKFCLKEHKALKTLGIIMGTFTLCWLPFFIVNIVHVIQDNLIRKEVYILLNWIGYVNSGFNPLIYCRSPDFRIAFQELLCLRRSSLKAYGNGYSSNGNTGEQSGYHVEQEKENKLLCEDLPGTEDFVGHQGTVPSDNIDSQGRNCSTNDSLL
Experimental: (§1) HEK 293 cells stably overexpressing β2AR included 250 μg/ml G418. Cells were incubated at 37° C. in a humidified incubator with 5% CO2. High throughput assay for cAMP production. […] 0.25 μL of orthogonally compressed libraries from the Lankenau Chemical Genomics Center (LCGC) were transferred into plates using a high-density replication tool and allowed to incubate with cells for one hour at 37° C. Cells were read every three minutes for 18 minutes on a PolarStar Optima plate reader (BMG) to establish peak signal. ISO was added to each well to a final concentration of 1 μM, and luminescence was determined in kinetic mode at room temperature (23-25° C.). Response was analyzed relative to forskolin (7 μM) and alprenolol (1 μM) as positive and negative controls, respectively. High throughput assay for β-arrestin recruitment to β2AR. […] 0.25 μL of orthogonally compressed libraries from the Lankenau Chemical Genomics Center (LCGC) were transferred into plates using a high-density replication tool and allowed to incubate with cells for 45 minutes at 37° C. ISO (5 μL of 5 μM stock in cell plating medium) was added to each well to a final concentration of 1 μM, and cells were incubated for 70 minutes at 37° C. Plates were removed from the incubator, and 12.5 μL of […] ® detection solution (DiscoveRx catalog #93-0001) was added to each well. Plates were incubated in the dark at room temperature for one hour. Luminescence was determined at room temperature (23-25° C.) on a PolarStar Optima plate reader (BMG). Response was analyzed relative to vehicle (DMSO) and alprenolol (1 μM) as positive and negative controls, respectively. Screening data analysis and IC50 determination. Negative control signal was subtracted from all data and responses were normalized relative to full response (positive control minus negative control). Relative assay bias was calculated from the ratio of normalized cAMP and arrestin recruitment responses. Wells from orthogonally-compressed libraries displaying Gs-bias (negative allosteric modulators of arrestin recruitment and positive allosteric modulators of cAMP production, excluding inverse agonists) were deconvoluted to identify compounds for follow-up analysis.
Assay [2] has as its target T1, β2AR. Briefly: GLOSENSOR cAMP production assay (bias = GloSensor IC50:PathHunter IC50). The settings on record: GloSensor IC50:PathHunter IC50 ratio.
Experimental: as §1
Where [3] appears, read: Table 2, scaffold drawing 253, R1/R2 substituents.
[4] abbreviates: Table 3, scaffold drawing 254, R1/R3 substituents.

`CC(C)NCC(O)c1ccc(O)c(O)c1` (stereo not shown) [ISO, isoproterenol]: the “HASM cell migration into scratched area” value with HASM cells is reported as “reduced migration”.

Take `c1ccc2c(NC3CCCCC3)nc(NC3CCCCC3)nc2c1` [cyclohexyl / N/A]: the IC50 against β2AR [1] (setting [3]) was 4 ± 1 µM. In addition, the Arrestin fold bias at β2AR [2] (Table 2) is on record as above 10.

`Clc1ccc(Nc2nc(NC3CCCCC3)c3ccccc3n2)cc1Cl` [m,p-dichlorophenyl / N/A] registered an IC50 against β2AR [1] (setting [3]) of 3 ± 0.7 µM. Moreover, the Arrestin fold bias on β2AR [2] (Table 2) was above 100.

For the compound `Fc1ccc(Nc2nc(NC3CCCCC3)c3cc(Br)ccc3n2)cc1F` [m,p-difluorophenyl / 6-bromo], at β2AR [1] (setting [3]), the IC50 stood at 0.03 ± 0.02 µM. Moreover, the Arrestin fold bias on β2AR [2] (Table 2) is given as above 900.

For the compound `Fc1ccc(Nc2nc(NC3CCCCC3)c3cc(Cl)ccc3n2)cc1F` [m,p-difluorophenyl / 6-chloro], at β2AR [1] (setting [3]), the IC50 was 0.12 ± 0.05 µM. Besides, on β2AR [2] (Table 2), the Arrestin fold bias is listed as above 400.

Turning to `Cc1ccc2nc(Nc3ccc(F)c(F)c3)nc(NC3CCCCC3)c2c1` [m,p-difluorophenyl / 6-methyl], the IC50 against β2AR [1] (setting [3]) turned out to be 0.36 ± 0.18 µM. Further, the Arrestin fold bias at β2AR [2] (Table 2) was above 45.

For the compound `Fc1ccc(Nc2nc(NC3CCCCC3)c3cc(C(F)(F)F)ccc3n2)cc1F` [m,p-difluorophenyl / 6-trifluoromethyl], the Arrestin fold bias at β2AR [2] (Table 2) is above 1000.

On to `COc1ccc(Nc2nc(NC3CCCCC3)c3ccccc3n2)cc1OC` [m,p-dimethoxyphenyl / N/A], for which, on β2AR [1] (setting [3]), the IC50 came to 14 ± 3 µM. Further, at β2AR [2] (Table 2), the Arrestin fold bias is above 7.

Turning to `Clc1cccc(CNc2nc(NC3CCCCC3)c3ccccc3n2)c1` [m-chlorobenzyl / N/A], the IC50 against β2AR [1] (setting [3]) was 21 ± 2 µM. In addition, the Arrestin fold bias entry at β2AR [2] (Table 2) is “No”.

With `Clc1cccc(Nc2nc(NC3CCCCC3)c3ccccc3n2)c1` [m-chlorophenyl / N/A], on β2AR [1] (setting [3]), inhibition was half-maximal at 6 ± 0.8 µM (IC50). Besides, the Arrestin fold bias at β2AR [2] (Table 2) is given as above 10.

On β2AR [1] (setting [4]), `CC1CCCC(Nc2nc(Nc3cc(Cl)cc(Cl)c3)nc3ccccc23)C1` (stereo not shown) [m-dichlorophenyl / 3-methylcyclohexyl] came in with an IC50 of 8 ± 5 µM. The Arrestin fold bias at β2AR [2] (Table 3) is listed as above 10.

Compound `Clc1cc(Cl)cc(Nc2nc(NCc3ccccc3)c3ccccc3n2)c1` [m-dichlorophenyl / benzyl] gave an IC50 against β2AR [1] (setting [4]) of 30 ± 4 µM. The Arrestin fold bias result on β2AR [2] (Table 3) is “No”.

With `Clc1cc(Cl)cc(Nc2nc(NC3CCCC3)c3ccccc3n2)c1` [m-dichlorophenyl / cyclopentyl], the IC50 on β2AR [1] (setting [4]) was determined as 9 ± 3 µM. Further, the Arrestin fold bias on β2AR [2] (Table 3) is around 2.

`Fc1cc(F)cc(Nc2nc(NC3CCCCC3)c3ccccc3n2)c1` [m-difluorophenyl / N/A] gave an IC50 on β2AR [1] (setting [3]) of 0.2 ± 0.05 µM. The Arrestin fold bias on β2AR [2] (Table 2) is above 200.

As to `FC(F)(F)c1cccc(Nc2nc(NC3CCCCC3)c3ccccc3n2)c1` [m-trifluoromethylphenyl / N/A], on β2AR [1] (setting [3]), the IC50 came to 3 ± 1 µM. Also, the Arrestin fold bias on β2AR [2] (Table 2) was around 3.

Consider `Clc1ccc(Nc2nc(NC3CCCCC3)c3ccccc3n2)cc1` [p-chlorophenyl / N/A], for which the IC50 at β2AR [1] (setting [3]) amounted to 0.8 ± 0.2 µM. Moreover, the Arrestin fold bias on β2AR [2] (Table 2) was above 100.

The compound `Fc1ccc(Nc2nc(NC3CCCCC3)c3ccccc3n2)cc1` [p-fluorophenyl / N/A] gave an IC50 against β2AR [1] (setting [3]) of 0.23 ± 0.07 µM. At β2AR [2] (Table 2), the Arrestin fold bias is above 200.

For `Cc1ccc(CNc2nc(NC3CCCCC3)c3ccccc3n2)cc1` [p-methylbenzyl / N/A], on β2AR [1] (setting [3]), the IC50 was 8 ± 2 µM. At β2AR [2] (Table 2), the Arrestin fold bias was around 4.

For `c1ccc(Nc2nc(NC3CCCCC3)c3ccccc3n2)cc1` [phenyl / N/A], on β2AR [1] (setting [3]), 3 ± 0.7 µM corresponded to half-maximal inhibition (IC50). The Arrestin fold bias on β2AR [2] (Table 2) is on record as above 100.

`OCc1cc(C(O)CNCCCCCCOCCCCc2ccccc2)ccc1O` (stereo not shown) [salmeterol]: the “HASM cell migration into scratched area” value in the assay on HASM cells is “reduced migration”.

(Values after patent publication US20240166626A1, “Compounds and Methods for Preventing, Treating, or Ameliorating Airway Disease” (THOMAS JEFFERSON UNIVERSITY, priority 2021, published 2024).)
